According to ChEMBL document CHEMBL1146896, “Synthesis and monoamine transporter affinity of 2beta-carbomethoxy-3beta-(4'-p-substituted phenyl)-piperidine analogs of cocaine” (Bioorg Med Chem Lett, 2006):

Key:
[1] = target: Monoamine transporters; Norepinephrine & serotonin (Rattus norvegicus) (UniProt P31652+Q9WTR4); experiment: Selectivity for SERT over NET; assay type: protein assay
[2] = target: Monoamine transporters; serotonin & dopamine (Rattus norvegicus) (UniProt P31652+P23977); experiment: Selectivity for SERT over DAT; assay type: protein assay
Monoamine transporters; serotonin & dopamine (Rattus norvegicus), sequence (P23977 whole entry, looked up): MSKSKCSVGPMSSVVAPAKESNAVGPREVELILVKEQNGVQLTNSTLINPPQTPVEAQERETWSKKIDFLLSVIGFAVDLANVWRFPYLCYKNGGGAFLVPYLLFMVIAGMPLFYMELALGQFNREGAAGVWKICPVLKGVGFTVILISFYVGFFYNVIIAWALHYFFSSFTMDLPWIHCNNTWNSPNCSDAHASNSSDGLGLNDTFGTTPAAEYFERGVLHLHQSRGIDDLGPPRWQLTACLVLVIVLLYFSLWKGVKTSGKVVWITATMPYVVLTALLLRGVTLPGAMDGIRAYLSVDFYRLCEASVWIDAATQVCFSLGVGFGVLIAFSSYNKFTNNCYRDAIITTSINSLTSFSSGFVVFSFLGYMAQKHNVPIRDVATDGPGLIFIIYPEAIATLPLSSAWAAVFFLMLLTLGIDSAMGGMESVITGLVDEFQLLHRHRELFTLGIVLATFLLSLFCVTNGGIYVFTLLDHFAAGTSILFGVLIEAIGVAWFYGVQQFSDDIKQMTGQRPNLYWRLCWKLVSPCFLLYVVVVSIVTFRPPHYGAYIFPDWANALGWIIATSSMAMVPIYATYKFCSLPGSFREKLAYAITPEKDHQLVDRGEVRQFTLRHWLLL
Monoamine transporters; serotonin & dopamine (Rattus norvegicus), sequence (P31652 whole entry, looked up): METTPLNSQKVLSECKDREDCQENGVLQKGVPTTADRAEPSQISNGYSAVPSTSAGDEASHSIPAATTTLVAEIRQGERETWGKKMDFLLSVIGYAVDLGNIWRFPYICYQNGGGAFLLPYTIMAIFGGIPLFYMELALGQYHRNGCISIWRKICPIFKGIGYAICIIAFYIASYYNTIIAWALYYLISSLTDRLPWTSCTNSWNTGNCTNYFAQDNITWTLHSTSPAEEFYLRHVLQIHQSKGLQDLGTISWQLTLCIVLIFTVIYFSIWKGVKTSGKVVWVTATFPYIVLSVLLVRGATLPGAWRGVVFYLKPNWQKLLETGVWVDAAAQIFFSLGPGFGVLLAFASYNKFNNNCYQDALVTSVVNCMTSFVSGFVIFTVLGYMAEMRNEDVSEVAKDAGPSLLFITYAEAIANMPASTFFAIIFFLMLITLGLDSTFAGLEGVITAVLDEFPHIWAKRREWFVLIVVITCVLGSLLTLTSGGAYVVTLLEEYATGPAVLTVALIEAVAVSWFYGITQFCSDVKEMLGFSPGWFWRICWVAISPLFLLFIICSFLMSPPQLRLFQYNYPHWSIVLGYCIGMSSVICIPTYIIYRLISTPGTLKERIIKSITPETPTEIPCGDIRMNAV

[3] = target: Norepinephrine transporter (Rattus norvegicus, UniProt Q9WTR4); experiment: Displacement of [3H]nisoxetine from NET in rat cerebral cortex; assay type: tissue-based
Norepinephrine transporter, sequence (Q9WTR4 whole entry): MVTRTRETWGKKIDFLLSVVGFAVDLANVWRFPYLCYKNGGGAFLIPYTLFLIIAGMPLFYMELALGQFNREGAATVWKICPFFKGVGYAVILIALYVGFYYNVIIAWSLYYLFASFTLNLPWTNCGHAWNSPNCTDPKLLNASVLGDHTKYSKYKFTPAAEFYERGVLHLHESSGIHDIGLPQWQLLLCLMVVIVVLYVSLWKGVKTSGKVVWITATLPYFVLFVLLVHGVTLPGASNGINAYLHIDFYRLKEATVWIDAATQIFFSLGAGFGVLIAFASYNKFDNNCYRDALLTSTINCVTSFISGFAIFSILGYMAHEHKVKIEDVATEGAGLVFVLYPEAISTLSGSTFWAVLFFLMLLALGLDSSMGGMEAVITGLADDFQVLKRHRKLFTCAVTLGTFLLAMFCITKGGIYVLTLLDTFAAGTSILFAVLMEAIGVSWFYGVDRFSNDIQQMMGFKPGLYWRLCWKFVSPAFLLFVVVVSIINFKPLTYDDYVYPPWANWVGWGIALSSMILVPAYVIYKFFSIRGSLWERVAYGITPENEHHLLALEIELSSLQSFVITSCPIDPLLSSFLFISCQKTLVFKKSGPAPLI

[4] = target: Sodium-dependent dopamine transporter (Rattus norvegicus, UniProt P23977); experiment: Displacement of [3H]beta-CIT from DAT in rat caudate homogenate
Sodium-dependent dopamine transporter, sequence (P23977 whole entry): as the sequence (P23977 whole entry, looked up) above

[5] = target: Sodium-dependent serotonin transporter (Rattus norvegicus, UniProt P31652); experiment: Displacement of [3H]cyanoimipramine from SERT in rat cerebral cortex homogenate; assay type: tissue-based
Sodium-dependent serotonin transporter, sequence (P31652 whole entry): as the sequence (P31652 whole entry, looked up) above

| Structure (SMILES) | Ratio Ki [1] | Ratio Ki [2] | Ki [3] [nM] | Ki [4] [nM] | Ki [5] [nM] |
| --- | --- | --- | --- | --- | --- |
| COC(=O)[C@@H]1CN(C)CC[C@@H]1c1ccc(-c2nccs2)cc1 (racemic) [listing 1 of 2 here] | 4 | 2 | – | – | – |
| COC(=O)[C@H]1[C@@H](c2ccc(I)cc2)C[C@@H]2CC[C@H]1N2C | 6.1 | 2.1 | 2.8 | 0.96 | – |
| COC(=O)[C@@H]1CN(C)CC[C@@H]1c1ccc(-c2ccsc2)cc1 | > 3140 | 188 | > 10000 | 598 | 31.8 |
| COC(=O)[C@@H]1CN(C)CC[C@@H]1c1ccc(C=O)cc1 | 17.3 | 5.8 | > 30000 | > 10000 | 1730 |
| COC(=O)[C@@H]1CN(C)CC[C@@H]1c1ccc(-c2ccco2)cc1 | > 2700 | 11.1 | > 50000 | 205 | 18.5 |
| COC(=O)[C@@H]1CN(C)CC[C@@H]1c1ccc(-c2nccs2)cc1 [listing 1 of 2 here] | 5 | 1 | – | – | – |
| COC(=O)[C@@H]1CN(C)CC[C@@H]1c1ccc(I)cc1 | 59.9 | 11.2 | – | 195 | 167 |
| COC(=O)[C@@H]1CN(C)CC[C@@H]1c1ccc(-c2cccs2)cc1 | > 551 | > 55 | > 50000 | ≥ 5000 | 90.8 |
| COC(=O)[C@@H]1CN(C)CC[C@@H]1c1ccc(-c2nccs2)cc1 [listing 2 of 2 here] | – | – | > 50000 | – | > 10000 |
| COC(=O)[C@@H]1CN(C)CC[C@@H]1c1ccc(/C=C\I)cc1 | > 3800 | 15.6 | > 30000 | 123 | 7.9 |
| COC(=O)[C@@H]1CN(C)CC[C@@H]1c1ccc(-c2nccs2)cc1 (racemic) [listing 2 of 2 here] | – | – | > 20000 | > 10000 | > 5000 |
